Calls of active or inactive are those of the source. The rule behind the calls is not given here.
What was measured:
RT-4 [1] = test: Antiproliferative activity against human RT-4 cells expressing FGFR3-TACC3 at 3 uM measured after 72 hrs by WST assay; format: functional, cell-based
RT-4 [2] = test: Sniper activity at FGFR3-TACC3 in human RT4 cells assessed as decrease in FGFR3-TACC3 protein level at 3 uM after 6 hrs; format: cell-based
RT-4 [3] = test: Sniper activity at FGFR3-TACC3 in human RT4 cells assessed as decrease in FGFR3-TACC3 protein level at 3 uM after 6 hrs in presence of siRNA XIAP; format: cell-based
RT-4 [4] = test: Sniper activity at FGFR3-TACC3 in human RT4 cells assessed as decrease in FGFR3-TACC3 protein level at 30 uM after 6 hrs; format: cell-based

SMILES	Activity (RT-4 [1])	Activity (RT-4 [2])	Activity (RT-4 [3])	Activity (RT-4 [4])
CN[C@@H](C)C(=O)N[C@H](C(=O)N1CCC[C@H]1c1nc(C(=O)c2cccc(OCCOCCOCCNC(=O)c3ccc(-c4nc(CNc5nccc(NCC(C)C)n5)cs4)cc3)c2)cs1)C1CCCCC1	Active	Active	Active	
CC(C)CNc1ccnc(NCc2csc(-c3ccc(C(=O)NCCOCCOCCOCCNC(=O)[C@H](CC(C)C)NC(=O)[C@@H](O)[C@H](N)Cc4ccccc4)cc3)n2)n1				Active
CN[C@@H](C)C(=O)N[C@H](C(=O)N1CCC[C@H]1c1nc(C(=O)c2cccc(OCCOCCOCCOCCNC(=O)c3ccc(-c4nc(CNc5nccc(NCC(C)C)n5)cs4)cc3)c2)cs1)C1CCCCC1		Active		
CN[C@@H](C)C(=O)N[C@H](C(=O)N1C[C@@H](Oc2cccc(OCCOCCOCCOCCOCCNC(=O)c3ccc(-c4nc(CNc5nccc(NCC(C)C)n5)cs4)cc3)c2)CC1C(=O)N[C@@H]1CCCc2ccccc21)C1CCCCC1 (some centres not stated)		Active		
CN[C@@H](C)C(=O)N[C@H](C(=O)N1C[C@@H](Oc2cccc(OCCOCCOCCOCCNC(=O)c3ccc(-c4nc(CNc5nccc(NCC(C)C)n5)cs4)cc3)c2)C[C@H]1C(=O)N[C@@H]1CCCc2ccccc21)C1CCCCC1		Active		

From ChEMBL document CHEMBL5143577, “Development of a degrader against oncogenic fusion protein FGFR3-TACC3” (Bioorg Med Chem Lett, 2022)
